Converted amounts (≈) assume the structure as drawn.
Experiments:
S. aureus 6685 = experiment: Antibacterial microplate agar assay (MIC); format: cell-based, Staphylococcus aureus; settings: PYG agar, pH 6, 24 hours, 28° to 37° C.
Experimental: (§1) The antibacterial assay is a standard microplate agar assay using PYG agar, pH 6. PYG agar consists of the following ingredients:
(§2) The MIC is determined by standard methods. The inocula are overnight cultures of the test organisms, diluted so that the final population contains approximately 10^5 cells/ml. The agar plates are incubated at 28° to 37° C. for 24 hours. The lowest antibiotic concentration which allows no growth=MIC or minimum inhibitory concentration.
as §2, with “Assay. The antibacterial assay is a standard microplate agar assay using PYG agar, pH 6. The MIC” for “The MIC”

S. aureus 6690 = experiment: Antibacterial microplate agar assay (MIC); format: cell-based, Staphylococcus aureus; settings: PYG agar, pH 6, 24 hours, 28° to 37° C.
Experimental: as §1, §2
as §2, with “Assay. The antibacterial assay is a standard microplate agar assay using PYG agar, pH 6. The MIC” for “The MIC”

S. aureus UC 76 = experiment: Antibacterial microplate agar assay (MIC); format: cell-based, Staphylococcus aureus; settings: PYG agar, pH 6, 24 hours, 28° to 37° C.
Experimental: as §1, §2
as §2, with “Assay. The antibacterial assay is a standard microplate agar assay using PYG agar, pH 6. The MIC” for “The MIC”

S. faecalis 694 = experiment: Antibacterial microplate agar assay (MIC); format: cell-based, Streptococcus faecalis; settings: PYG agar, pH 6, 24 hours, 28° to 37° C.
Experimental: as §1, §2
as §2, with “Assay. The antibacterial assay is a standard microplate agar assay using PYG agar, pH 6. The MIC” for “The MIC”

E. cloacae 6783 = experiment: Antibacterial microplate agar assay (MIC); format: cell-based; settings: PYG agar, pH 6, 24 hours, 28° to 37° C.
Experimental: as §1, §2
as §2, with “Assay. The antibacterial assay is a standard microplate agar assay using PYG agar, pH 6. The MIC” for “The MIC”

E. coli 45 = experiment: Antibacterial microplate agar assay (MIC); format: cell-based; settings: PYG agar, pH 6, 24 hours, 28° to 37° C.
Experimental: as §1, §2
as §2, with “Assay. The antibacterial assay is a standard microplate agar assay using PYG agar, pH 6. The MIC” for “The MIC”

Enterococcus sp. 701 = experiment: Antibacterial microplate agar assay (MIC); format: cell-based; settings: PYG agar, pH 6, 24 hours, 28° to 37° C.
Experimental: as §1, §2
as §2, with “Assay. The antibacterial assay is a standard microplate agar assay using PYG agar, pH 6. The MIC” for “The MIC”

K. pneumoniae 58 = experiment: Antibacterial microplate agar assay (MIC); format: cell-based; settings: PYG agar, pH 6, 24 hours, 28° to 37° C.
Experimental: as §1, §2
as §2, with “Assay. The antibacterial assay is a standard microplate agar assay using PYG agar, pH 6. The MIC” for “The MIC”

P. stuartii 6570 = experiment: Antibacterial microplate agar assay (MIC); format: cell-based; settings: PYG agar, pH 6, 24 hours, 28° to 37° C.
Experimental: as §1, §2
as §2, with “Assay. The antibacterial assay is a standard microplate agar assay using PYG agar, pH 6. The MIC” for “The MIC”

Ps. aeruginosa 95 = experiment: Antibacterial microplate agar assay (MIC); format: cell-based; settings: PYG agar, pH 6, 24 hours, 28° to 37° C.
Experimental: as §1, §2
as §2, with “Assay. The antibacterial assay is a standard microplate agar assay using PYG agar, pH 6. The MIC” for “The MIC”

S. flexneri 143 = experiment: Antibacterial microplate agar assay (MIC); format: cell-based; settings: PYG agar, pH 6, 24 hours, 28° to 37° C.
Experimental: as §1, §2
as §2, with “Assay. The antibacterial assay is a standard microplate agar assay using PYG agar, pH 6. The MIC” for “The MIC”

S. marcescens 131 = experiment: Antibacterial microplate agar assay (MIC); format: cell-based; settings: PYG agar, pH 6, 24 hours, 28° to 37° C.
Experimental: as §1, §2
as §2, with “Assay. The antibacterial assay is a standard microplate agar assay using PYG agar, pH 6. The MIC” for “The MIC”

S. schottmuelleri 126 = experiment: Antibacterial microplate agar assay (MIC); format: cell-based; settings: PYG agar, pH 6, 24 hours, 28° to 37° C.
Experimental: as §1, §2
as §2, with “Assay. The antibacterial assay is a standard microplate agar assay using PYG agar, pH 6. The MIC” for “The MIC”

Gram-positive bacteria = experiment: Antibacterial activity against Gram-positive bacteria; format: cell-based
Experimental: as §1, §2
as §2, with “Assay. The antibacterial assay is a standard microplate agar assay using PYG agar, pH 6. The MIC” for “The MIC”

L-1210 = experiment: Antitumor (in vitro) activity; format: cell-based; settings: L-1210, in vitro
[1] = 60% aq. ethanol

C/C=C(\N=C=S)C(=O)O[C@H]1[C@@H](O[C@H]2C[C@H](OC)[C@@](O)([C@H](C)OC(=O)C(C)C)[C@H](C)O2)[C@@H](O)[C@H]([C@@]2(O)CC(=O)C(=N)C(C(=O)O)=C2O)O[C@@H]1COC(C)=O [Paulomycin B]
Minimum Inhibitory Concentration (S. aureus 6685): 0.50 µg/mL
Minimum Inhibitory Concentration (S. aureus 6690): 2.0 µg/mL
Minimum Inhibitory Concentration (S. aureus UC 76): 0.50 µg/mL
Minimum Inhibitory Concentration (S. faecalis 694): 125 µg/mL
Minimum Inhibitory Concentration (E. cloacae 6783): 500 µg/mL
Minimum Inhibitory Concentration (E. coli 45): 250 µg/mL
Minimum Inhibitory Concentration (Enterococcus sp. 701): 31.2 µg/mL
Minimum Inhibitory Concentration (K. pneumoniae 58): 250 µg/mL
Minimum Inhibitory Concentration (P. stuartii 6570): 250 µg/mL
Minimum Inhibitory Concentration (Ps. aeruginosa 95): 250 µg/mL
Minimum Inhibitory Concentration (S. flexneri 143): 250 µg/mL
Minimum Inhibitory Concentration (S. marcescens 131): 250 µg/mL
Minimum Inhibitory Concentration (S. schottmuelleri 126): 500 µg/mL
adversely affecting the growth of Gram-positive bacteria (Gram-positive bacteria; for example Bacillus subtilis, Staphylococcus aureus, Streptococcus pyogenes and Streptococcus faecalis): adversely affecting the growth of Gram-positive bacteria
activity against various Gram-positive bacteria (Gram-positive bacteria; in words): active against various Gram-positive bacteria
ID50 (L-1210): 8.6 µg/mL (≈ 11.1 µM)
ID90 (L-1210): 21 µg/mL (≈ 27.2 µM)
pKa [1]: 7.4
